# Assay results reported in patent publication US10800732B2, “Substituted malonamides and their use as antibacterial drugs” (National Taiwan University, priority 2015, dated 2020).
# Where “and” joins values, the source holds several entries; their conditions need not be identical. Identical values can stand only once. Like-named read-outs stand apart in the source and are kept apart here.
# Columns and labels:
# [1] = test system: S. saprophyticus (ATCC 15305); experiment: MIC, S. saprophyticus; type: cell-based
# [2] = test system: MRSA SCCmec VT; experiment: MIC, MRSA SCCmec VT; type: cell-based, methicillin-resistant Staphylococcus aureus
# [3] = test system: HEK-293; experiment: Antiproliferative activity, HEK-293; type: cell-based, human; conditions: for IC50: HEK-293, antiproliferative
# Experimental: (§1) In addition to the antibacterial activities, the cytotoxic effects of these malonate derivatives on human cancer cell lines were also assessed.
# [4] = test system: Listeria monocytogenes ATCC 19113; experiment: MIC, Listeria monocytogenes; type: cell-based
# [5] = test system: S. aureus ATCC 12598; experiment: MIC, S. aureus ATCC 12598; type: cell-based, Staphylococcus aureus
# [6] = test system: Clostridium difficile 630; experiment: MIC, Clostridium difficile 630; type: cell-based
# [7] = test system: Enterococcus faecium ATCC 19434; experiment: MIC, Enterococcus faecium ATCC 19434; type: cell-based
# [8] = test system: clinical isolated VISA strain; experiment: MIC, VISA; type: cell-based, vancomycin-intermediate Staphylococcus aureus; conditions: VISA, clinical isolate
# [9] = test system: Mycobacterium tuberculosis H37Ra; experiment: MIC, Mycobacterium tuberculosis; type: cell-based
# [10] = test system: Streptococcus pyogenes ATCC 19615; experiment: MIC, Streptococcus pyogenes; type: cell-based
# [11] = test system: S. aureus NCTC 8325; type: cell-based, Staphylococcus aureus; conditions: 200-day exposure to sub-lethal concentrations
# [12] = test system: S. haemolyticus (ATCC 29970); experiment: MIC, S. haemolyticus; type: cell-based
# [13] = test system: Corynebacterium diphtheriae ATCC 11913; experiment: MIC, Corynebacterium diphtheriae; type: cell-based
# [14] = test system: S. lugdunesis (NTUH isolate); experiment: MIC, S. lugdunesis; type: cell-based
# [15] = test system: Enterococcus faecium ATCC 35667; experiment: MIC, Enterococcus faecium ATCC 35667; type: cell-based
# [16] = test system: S. aureus NCTC 8325; experiment: Time-kill kinetics; type: cell-based, Staphylococcus aureus; conditions: for reduction in CFU: 24-h treatment period; for bactericidal / bacteriostatic classification: killing over 99.9% of inoculum within 24 hours
# [17] = test system: VR-E. faecium; experiment: MIC, VR-E. faecium; type: cell-based, vancomycin resistant Enterococcus faecium
# [18] = test system: Bacillus cereus ATCC 11778; experiment: MIC, Bacillus cereus; type: cell-based
# [19] = test system: S. intermedius (ATCC 29663); experiment: MIC, S. intermedius; type: cell-based
# [20] = test system: VRSA (SJC1200); experiment: MIC, VRSA; type: cell-based, vancomycin-resistant Staphylococcus aureus; conditions: VRSA (SJC1200)
# [21] = test system: Enterococcus faecalis ATCC 19433; experiment: MIC, Enterococcus faecalis; type: cell-based
# [22] = test system: K-562; experiment: Antiproliferative activity, K-562; type: cell-based, human; conditions: for IC50: K-562, antiproliferative
# Experimental: as §1
# [23] = test system: Bacillus subtilis BCRC 10255; experiment: MIC, Bacillus subtilis; type: cell-based
# [24] = test system: MSSA ATCC 29213 or MRSA ATCC 33592; experiment: Survival of MSSA- or MRSA-infected C. elegans; type: in vivo, Caenorhabditis elegans; conditions: 2- to 8-folds of MIC in S-medium, versus DMSO control
# Experimental: (§2) FIG. 2. SC5005 protects C. elegans from S. aureus infection. Effect of SC78 and SC5005 on the survival of MSSA- or MRSA-infected C. elegans was assessed. The glp-4(bn2) C. elegans were fed on E. coli (OP50), MSSA (ATCC 29213) or MRSA (ATCC 33592) followed by exposing to SC78 or SC5005 at concentrations of 2-, 4-, 8-folds of respective MIC in S-medium. The survival of worms was monitored daily till the end of the study. The survival of animals fed with E. coli (OP50) and receiving DMSO only was served as a control to show the normal life-span of C. elegans.
# Caenorhabditis elegans has been broadly used as a model host for the studies of human infectious diseases, including infections caused by S. aureus. To investigate whether SC78 and SC5005 can suppress the infection of S. aureus in C. elegans, worms were infected with MSSA ATCC 29213 or MRSA ATCC 33592 followed by exposing to individual drugs at concentrations of 2- to 8-folds of respective MIC in S-medium. Control groups were treated with DMSO at concentration equal to that of drug treated groups (final concentration, 0.1%).
# [25] = test system: MRSA ATCC 33592; experiment: MIC, MRSA ATCC 33592; type: cell-based, methicillin-resistant Staphylococcus aureus; conditions: MRSA ATCC 33592
# [26] = test system: S. aureus NCTC 8325; experiment: MIC, S. aureus NCTC 8325 (CLSI broth microdilution / agar dilution); type: cell-based, Staphylococcus aureus
# [27] = test system: S. hominis (ATCC 27844); experiment: MIC, S. hominis; type: cell-based
# [28] = test system: HT-29; experiment: Antiproliferative activity, HT-29; type: cell-based, human; conditions: for IC50: HT-29, antiproliferative
# Experimental: as §1
# [29] = test system: Clostridium difficile R20291; experiment: MIC, Clostridium difficile R20291; type: cell-based
# [30] = test system: Clinical isolated MRSAs; experiment: MIC90, one hundred clinical isolated MRSA strains; type: cell-based, methicillin-resistant Staphylococcus aureus; conditions: one hundred clinical isolated MRSA from NTUH, concentration that inhibits 90% of strains tested
# [31] = test system: S. epidermidis ATCC 35984; experiment: MIC, S. epidermidis ATCC 35984; type: cell-based
# [32] = test system: C. elegans; experiment: Toxic effects on E. coli (OP50)-fed C. elegans; type: in vivo, Caenorhabditis elegans; conditions: escalating doses in S-medium
# Experimental: as §2
# Meanwhile, the toxic effects of these agents on C. elegans were also assessed. E. coli (OP50)-fed worms were exposed to escalating doses of SC78 and SC5005 in S-medium followed by monitoring of their survival daily.
# [33] = Clostridioides difficile, read-out: MIC
# [34] = Staphylococcus aureus, read-out: MIC
# [35] = S. epidermidis (ATCC 35984), Table 3
smiles,measurement,setting,value
O=C(Nc1ccc(Cl)c(C(F)(F)F)c1)Nc1ccc(Cl)c(C(F)(F)F)c1 [SC78],MIC,"[1]; Staphylococcus saprophyticus, ATCC15305, read-out: MIC",0.25 mg/L
same,MIC,"[2]; Staphylococcus aureus, MRSA SCCmec VT, read-out: MIC",0.25 mg/L
same,IC50,"[3]; Homo sapiens, HEK293, read-out: IC50",1.13 mg/L
same,Selectivity ratio,[3]; IC50 (HEK-293)/MIC against S. aureus,4.52
same,MIC,"[4]; ATCC19113, read-out: MIC",0.0625 mg/L
same,MIC,"[5]; Staphylococcus aureus, ATCC12598, read-out: MIC",0.25 mg/L
same,MIC,[6]; [33],0.5 mg/L
same,MIC,"[7]; ATCC19434, read-out: MIC",0.5 mg/L
same,MIC,[8]; [34],0.25 mg/L
same,MIC,[9]; read-out: MIC,1 mg/L
same,MIC,"[10]; ATCC19615, read-out: MIC",0.25 mg/L
same,resistance after consecutive exposure,[11],no resistance was observed
same,MIC,"[12]; Staphylococcus haemolyticus, ATCC29970, read-out: MIC",0.5 mg/L
same,MIC,"[13]; ATCC11913, read-out: MIC",0.25 mg/L
same,MIC,[14]; read-out: MIC,0.25 mg/L
same,MIC,"[15]; ATCC35667, read-out: MIC",0.25 mg/L
same,reduction in CFU,[16]; 8-folds of MIC,over 99.9%
same,bactericidal / bacteriostatic classification,[16],bactericidal
same,MIC,"[17]; Enterococcus faecium, read-out: MIC",0.25 mg/L
same,MIC,"[18]; ATCC11778, read-out: MIC",0.25 mg/L
same,MIC,[19]; read-out: MIC,1 mg/L
same,MIC,[20]; [34],0.25 mg/L
same,MIC,"[21]; ATCC19433, read-out: MIC",0.25 mg/L
same,IC50,"[22]; Homo sapiens, K562, read-out: IC50",4.73 mg/L
same,Selectivity ratio,[22]; IC50 (K-562)/MIC against S. aureus,18.92
same,MIC,"[23]; BCRC10255, read-out: MIC",0.25 mg/L
same,survival of MSSA- or MRSA-infected worms,[24],no significant difference was observed in the survival
same,MIC,[25]; [34],0.25 mg/L
same,MIC,"[26]; S. aureus (NCTC 8325), Table 3",0.25 mg/L
same,MIC,"[26]; S. aureus NCTC 8325, Table 2",0.25 mg/L
same,MIC,"[26]; Staphylococcus aureus, NCTC8325, S. aureus NCTC 8325, read-out: MIC",0.25 mg/L
same,MIC,"[27]; Staphylococcus hominis, ATCC27844, read-out: MIC",0.25 mg/L
same,IC50,"[28]; Homo sapiens, read-out: IC50",4.51 mg/L
same,Selectivity ratio,[28]; IC50 (HT-29)/MIC against S. aureus,18.04
same,MIC,[29]; [33],0.25 mg/L
same,MIC90,"[30]; Staphylococcus aureus, read-out: MIC90",0.25 mg/L
same,MIC,[31]; [35],0.25 mg/L
same,MIC,"[31]; Staphylococcus epidermidis, ATCC35984, S. epidermidis ATCC 35984, read-out: MIC",0.25 mg/L
same,survival of worms fed with OP50 (toxicity),[32],significantly decreased
O=C(Nc1ccc(Cl)c(C(F)(F)F)c1)C(CCCl)C(=O)Nc1ccc(Cl)c(C(F)(F)F)c1 [SC5005],MIC,[1],0.5 mg/L
same,MIC,[2]; MRSA SCCmec VT,0.5 mg/L
same,MIC,"[2]; SCCmec VT, Table 6",0.5 mg/L
same,IC50,[3],16.79 mg/L
same,MIC,[4],0.125 mg/L
same,MIC,[5],0.5 mg/L
same,MIC,[6],0.5 mg/L
same,MIC,[7],1 mg/L
same,MIC,[8],0.5 mg/L
same,MIC,[9],16 mg/L
same,MIC,[10],0.5 mg/L
same,resistance after consecutive exposure,[11],no resistance was observed
same,MIC,[12],1 mg/L
same,MIC,[13],0.5 mg/L
same,MIC,[14],0.5 mg/L
same,MIC,[15],0.5 mg/L
same,reduction in CFU,[16]; 4-folds of MIC,99.91%
same,reduction in CFU,[16]; 8-folds of MIC,99.95%
same,bactericidal / bacteriostatic classification,[16],bactericidal
same,MIC,[17],0.5 mg/L
same,MIC,[18],0.5 mg/L
same,MIC,[19],1 mg/L
same,MIC,[20],0.5 mg/L
same,MIC,[21],0.5 mg/L
same,IC50,[22],20.23 mg/L
same,MIC,[23],0.5 mg/L
same,survival of MSSA- or MRSA-infected worms,[24],significant increase in the mean survival
same,MIC,[25],0.5 mg/L
same,MIC,[25]; Table 6,0.5 mg/L
same,MIC,"[26]; MSSA NCTC 8325, Table 6",0.5 mg/L
same,MIC,"[26]; S. aureus (NCTC 8325), Table 3",0.5 mg/L
same,MIC,[26]; S. aureus NCTC 8325,0.5 mg/L
same,MIC,"[26]; S. aureus NCTC 8325, Table 2",0.5 mg/L
same,MIC,[27],0.25 mg/L
same,IC50,[28],14.56 mg/L
same,MIC,[29],0.5 mg/L
same,MIC90,[30],0.5 mg/L and 0.5^b mg/L
same,MIC,[31]; [35],0.5 mg/L
same,MIC,[31]; S. epidermidis ATCC 35984,0.5 mg/L
same,survival of worms fed with OP50 (toxicity),[32],didn't affect the survival
